Assay results reported in patent publication US20240148678A1, “SUSTAINED RELEASE INJECTABLE THERAPEUTIC FORMULATIONS USING APROTIC POLAR SOLVENTS” (Xeris Pharmaceuticals, Inc., priority 2022, published 2024).
Where “and” joins values, the source holds several entries; their conditions need not be identical. Equal values may be shown once.

Assays:
[1] = Storage stability of levothyroxine in DMSO formulations; type: physicochemical; settings: 5 mg/mL in DMSO without ionization stabilizing excipient; even in refrigeration
Description: These formulation studies are described in detail in U.S. Appl. No. 63/380,090, entitled “Stable Levothyroxine Formulations in Aprotic Polar Solvents,” filed on even day herewith, which is incorporated herein by reference in its entirety. […] The overall moisture content of the formulation was ˜5% when prepared using 1.0 N H2SO4. The moisture content of this formulation was due almost entirely to the added sulfuric acid (with a minor contribution from the trehalose dihydrate), which at 26 mM (from a 1.0 N (0.5 M) stock solution) results in a moisture content ˜5% (w/w). When prepared using concentrated acid (e.g., 10 N), the overall moisture content of the formulation could be reduced to about ˜1% without any significant impact on storage stability. Other exemplary formulations were prepared at a concentration of 5 mg/mL levothyroxine in DMSO that had been first acidified with about 13-15 mM sulfuric acid. These formulations were then used in levothyroxine pharmacokinetic pre-clinical studies using laboratory animals.

[2] = cited from earlier work

Row | Compound | stability when solubilized directly in DMSO [1] | solubility in DMSO ([2]; DMSO) | solubility in aqueous/physiological environments ([2]; aqueous/physiological)
1 | N[C@@H](Cc1cc(I)c(Oc2cc(I)c(O)c(I)c2)c(I)c1)C(=O)O [levothyroxine] | discolor and form degradation products within one day of storage | – | –
2 | CCOc1ccccc1OCCN[C@H](C)Cc1ccc(OC)c(S(N)(=O)=O)c1 [Tamsulosin, tamsulosin] | – | 100 mM and > 40 mg/ml | ~10 mM and 4 mg/ml
